Results on seven compounds are retold here after patent US6479531B1, “Gastrin and cholecystokinin receptor ligands” (James Black Foundation Limited, priority 1998, dated 2002).

For one assay, the target named is T1, CCKB receptor (Mus musculus, UniProt P56481).
T1 construct: The whole brains from male mice (CD1 22-25 g; Charles River) were removed; from tissue; host or cells: cerebral cortex membranes of male CD1 mice
T1 sequence (P56481 1-453): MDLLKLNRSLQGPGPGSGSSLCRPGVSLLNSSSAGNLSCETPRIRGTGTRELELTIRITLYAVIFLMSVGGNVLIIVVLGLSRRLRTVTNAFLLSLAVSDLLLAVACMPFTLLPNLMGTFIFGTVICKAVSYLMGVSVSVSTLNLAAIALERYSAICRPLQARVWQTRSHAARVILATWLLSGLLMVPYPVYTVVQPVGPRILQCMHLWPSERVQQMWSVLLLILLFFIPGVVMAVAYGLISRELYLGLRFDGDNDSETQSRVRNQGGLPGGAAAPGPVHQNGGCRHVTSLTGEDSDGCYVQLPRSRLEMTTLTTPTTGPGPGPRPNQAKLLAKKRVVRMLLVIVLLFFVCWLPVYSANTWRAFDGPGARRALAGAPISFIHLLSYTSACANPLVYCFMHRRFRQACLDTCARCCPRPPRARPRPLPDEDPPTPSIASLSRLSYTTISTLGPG
Briefly: CCKB receptor radioligand binding assay in mouse cortical membranes. Particulars: [125I]-CCK8(S) 200 pM, 150 min at 21±3°, read-out: CCKB pKi (converted). In outline: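 Bound radioactivity was gamma-counted after rapid GF/B filtration and cold 50 mM Tris-HCl (pH 7.4) washes. The tissue was cerebral cortex from male CD1 mice, prepared as twice-centrifuged membranes in pH 7.2 HEPES/NaCl/KCl/MgCl2/EDTA buffer with bacitracin at 20 mg/ml original wet weight.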

Another assay deals with T2, gastrin receptor (Rattus norvegicus, UniProt P30553).
T2 construct: The stomach was excised and flushed with ca. 1 ml of unbuffered physiological saline solution; from tissue; host or cells: isolated whole stomach of immature rats (ca. 21 days old)
T2 sequence (P30553 1-452): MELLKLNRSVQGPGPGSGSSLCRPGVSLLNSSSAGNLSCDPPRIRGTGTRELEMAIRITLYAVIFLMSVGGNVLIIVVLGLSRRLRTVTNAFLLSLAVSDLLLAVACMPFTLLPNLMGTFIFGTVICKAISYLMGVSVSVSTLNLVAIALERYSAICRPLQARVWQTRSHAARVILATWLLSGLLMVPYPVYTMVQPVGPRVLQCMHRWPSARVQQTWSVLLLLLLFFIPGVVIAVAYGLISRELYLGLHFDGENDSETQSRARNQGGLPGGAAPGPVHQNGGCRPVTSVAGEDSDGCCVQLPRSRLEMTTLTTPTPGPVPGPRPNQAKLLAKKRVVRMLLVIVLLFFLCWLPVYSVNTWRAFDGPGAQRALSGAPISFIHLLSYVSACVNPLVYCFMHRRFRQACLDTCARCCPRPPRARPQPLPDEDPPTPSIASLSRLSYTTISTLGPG
The assay can be described thus: gastrin antagonist activity in immature rat stomach assay (pentagastrin dose-response, acid secretion). To be noted: isolated immature rat stomach, cumulative pentagastrin dose-response curves, read-out: Gastrin pKb (converted). In outline: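 Isolated, lumen-perfused stomach from immature rats (33-50 g, ca. 21 days) in a 37° organ bath with 3×10^−8 M 5-methylfurmethide, gassed 95% O2/5% CO2. Compound added serosally after 120 min stabilisation; cumulative pentagastrin dose-response curves begun 60 min later, acid secretion followed by perfusate pH.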

The next assay has as its target T3, CCKA receptor (Cavia porcellus, UniProt Q63931).
T3 construct: The pancreatata were removed from male guineau-pigs (200-300 g; Dunkin Hartley); from tissue; host or cells: pancreas membranes of male Dunkin Hartley guinea-pigs
T3 sequence (Q63931 1-430): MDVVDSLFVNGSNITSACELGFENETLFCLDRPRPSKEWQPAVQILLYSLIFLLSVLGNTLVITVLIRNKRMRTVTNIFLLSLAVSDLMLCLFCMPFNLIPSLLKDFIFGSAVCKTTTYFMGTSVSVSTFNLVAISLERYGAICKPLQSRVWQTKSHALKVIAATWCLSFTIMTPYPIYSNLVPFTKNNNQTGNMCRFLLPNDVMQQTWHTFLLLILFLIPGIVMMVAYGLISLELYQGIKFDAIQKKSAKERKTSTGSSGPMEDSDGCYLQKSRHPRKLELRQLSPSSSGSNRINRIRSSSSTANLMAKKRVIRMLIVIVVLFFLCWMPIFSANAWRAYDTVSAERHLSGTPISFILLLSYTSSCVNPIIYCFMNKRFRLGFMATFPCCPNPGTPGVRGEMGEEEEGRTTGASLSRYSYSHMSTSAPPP
The assay can be described thus: CCKA binding assay in guinea-pig pancreas membranes. Particulars: [125I]-CCK8(S) 200 pM, with 0.375 μM PD134,308, read-out: CCKA pKi (converted). As for the experimental part: The compounds of certain examples were also tested in a CCKA binding assay as follows:
The pancreatata were removed from male guineau-pigs (200-300 g; Dunkin Hartley) and placed in ice-cold HEPES buffer (pH 7.2 @ 21±3° C.). The pancreatata were homogenised in 40 ml ice-cold HEPES buffer using a polytron (Brinkmann, PT10, setting 10) 4×1 second. The homogenate was centrifuged at 39,800 g for 15 min at 4° C. The supernatant was discarded and the pellet re-suspended using a Teflon-in-glass homogeniser in 20 volumes of fresh buffer and re-centrifuged as above. The final pellet was re-suspended using a Teflon-in-glass homogeniser to a tissue concentration of 1 mg.ml^−1 (original weight), and filtered through a 500 μm pore-size Nytex mesh.
The membranes (400 μl; containing 0.375 μM PD134,308) were incubated for 150 minutes at 21±3° C. in a final volume of 0.5 ml with HEPES buffer containing [^125I]-CCK8 (S) (50 μl; 200 pM) and competing compound. Total and non-specific binding of [^125I]-CCK8 (S) were defined using 50 μl of buffer and 50 μ of 100 nM L-364,718 respectively. The assay was terminated by rapid filtration through pre-soaked Whatman GF/B filters using a Brandell Cell Harvetser. The filters were washed (3×3 ml) with ice-cold 50 mM Tris HCl (pH 7.4 @ 4° C.) and bound radioactivity was determined by counting (1 min) in a gamma counter.

Each structure is given as a SMILES string.

With `Cc1cc(C)c(-c2nc(C(=O)Nc3ccc(C)c(C(=O)O)c3)c(CCC34CC5CC(CC(C5)C3)C4)[nH]2)c(C)c1` [Example 155, 5-{[5-(2-Adamantan-1-yl-ethyl)-2-(2,4,6-trimethyl-phenyl)-1H-imidazole-4-carbonyl]-amino}-2-methyl-benzoic Acid], the Ki on CCKB receptor was 2.88 nM; on CCKA receptor it was 126 nM. Also, at gastrin receptor, the Kb was 3.24 nM.
With `Cc1ccc(NC(=O)c2[nH]c(C3(C)CCCCC3)nc2CCC23CC4CC(CC(C4)C2)C3)cc1C(=O)O` [Example 200, 5-{[5-(2-Adamantan-1-yl-ethyl)-2-(1-methyl-cyclohexyl)-1H-imidazole-4-carbonyl}-amino)-2-methyl-benzoic Acid], the Ki on CCKB receptor is 3.8 nM; at CCKA receptor, 251 nM. Also, the Kb on gastrin receptor is 0.891 nM.
Turning to `O=C(O)c1cccc(NC(=O)c2nc(C3CCCCC3)[nH]c2COC23CC4CC(CC(C4)C2)C3)c1` [Example 216, 3-{[5-(Adamantan-1-yloxymethyl)-2-cyclohexyl-1H-imidazole-4-carbonyl]-amino}-benzoic Acid], the Ki was 12.6 nM at CCKB receptor and 501 nM on CCKA receptor. Also, the Kb on gastrin receptor is 0.871 nM.
The matching figures for `O=C(O)c1cccc(NC(=O)c2[nH]c(C3CCCCC3)nc2CCC23CC4CC(CC(C4)C2)C3)c1` [Example 76, 3-{[5-(2-Adamantan-1-yl-ethyl)-2-cyclohexyl-1H-imidazole-4-carbonyl]-amino}-benzoic Acid]: 25.1 nM, 631 nM and 4.9 nM.
On to `O=C(O)c1cccc(NC(=O)c2nc([C@H]3CC4C=C[C@@H]3C4)[nH]c2COC23CC4CC(CC(C4)C2)C3)c1` [Example 235, endo-3-{[5-(Adamantan-1-yloxymethyl)-2-((1S,2S)-bicyclo[2.2.1]hept-5-en-2-yl)-1H-imidazole-4-carbonyl]-amino}-benzoic Acid], for which the Kb on gastrin receptor is 3.02 nM. Moreover, the Ki on CCKA receptor was 2510 nM.
For the compound `Cc1ccc(NC(=O)c2nc(C3CC4C=CC3C4)[nH]c2CCC23CC4CC(CC(C4)C2)C3)cc1C(=O)O` (racemic) [Example 211, (±)-endo-5-{[5-(2-Adamantan-1-yl-ethyl)-2-bicyclo[2.2.1]hept-5-en-2-yl-1H-imidazole-4-carbonyl]-amino}-2-methyl-benzoic Acid], the Ki at CCKB receptor is 2.29 nM; on CCKA receptor, 100 nM. Moreover, the Kb on gastrin receptor is 2.57 nM.
As for `O=C(O)c1cccc(NC(=O)c2nc(C34CCC(CC3)CC4)[nH]c2COC23CC4CC(CC(C4)C2)C3)c1` [Example 221, 3-{[5-(Adamantan-1-yloxymethyl)-2-bicyclo[2.2.2]oct-1-yl-1H-imidazole-4-carbonyl]-amino}-benzoic Acid], the Kb at gastrin receptor was 0.708 nM. Also, at CCKA receptor, the Ki was 794 nM.
